Columns and labels:
DDR1 [1] = target: T1, DDR1 (Homo sapiens, UniProt Q08345); experiment: DDR1 cell based assay (PathHunter U2OS DDR1 assay); parameters: host or cells: U2OS-DDR1 (PathHunter); details: U2OS-DDR1 cells, bovine Type II Collagen 20 μg/ml
In short: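 Receptor activation measured by enzyme-fragment complementation luminescence in engineered U2OS cells. Compound added 30 min before overnight challenge with 20 μg/ml bovine collagen II; data scaled between vehicle and collagen-stimulated controls, IC50 derived by four-parameter variable-slope fitting.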

DDR2 = target: T2, DDR2 (Homo sapiens, UniProt Q16832); experiment: DDR2 binding assay (LanthaScreen Europium Kinase Binding assay); parameters: purchased Life Technologies; details: binding assay, 5 nM DDR2, 10 nM Kinase Tracer 178; Ki from IC50 by Cheng-Prusoff; read-out: Ki DDR2
T2 sequence (Q16832 22-855): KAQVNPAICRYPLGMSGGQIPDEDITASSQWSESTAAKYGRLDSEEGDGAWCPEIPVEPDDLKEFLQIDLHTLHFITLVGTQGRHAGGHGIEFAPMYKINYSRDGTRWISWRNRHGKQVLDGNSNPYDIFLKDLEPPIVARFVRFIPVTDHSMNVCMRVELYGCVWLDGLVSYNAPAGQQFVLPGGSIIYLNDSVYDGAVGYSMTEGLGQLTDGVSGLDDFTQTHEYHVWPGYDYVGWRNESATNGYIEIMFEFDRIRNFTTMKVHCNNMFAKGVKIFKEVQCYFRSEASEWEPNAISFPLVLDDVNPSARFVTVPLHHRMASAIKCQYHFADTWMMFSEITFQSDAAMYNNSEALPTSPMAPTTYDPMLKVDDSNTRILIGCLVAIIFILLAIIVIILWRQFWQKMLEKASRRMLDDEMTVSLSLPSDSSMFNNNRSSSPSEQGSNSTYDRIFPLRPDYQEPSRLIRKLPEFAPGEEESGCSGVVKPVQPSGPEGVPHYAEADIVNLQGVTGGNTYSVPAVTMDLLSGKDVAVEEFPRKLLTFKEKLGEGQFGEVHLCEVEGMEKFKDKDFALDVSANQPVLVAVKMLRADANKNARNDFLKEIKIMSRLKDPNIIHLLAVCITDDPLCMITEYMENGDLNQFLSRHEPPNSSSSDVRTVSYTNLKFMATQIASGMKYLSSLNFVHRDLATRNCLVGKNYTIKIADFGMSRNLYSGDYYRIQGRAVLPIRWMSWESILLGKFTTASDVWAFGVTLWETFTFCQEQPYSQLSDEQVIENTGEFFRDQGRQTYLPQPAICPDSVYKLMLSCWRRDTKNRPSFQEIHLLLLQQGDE
In short: (§1)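 TR-FRET tracer-displacement format: 665/615 nm emission ratio (340 nm excitation) gave IC50 by 4-parameter fit, then Ki via Cheng-Prusoff. Each kinase at 5 nM with 2 nM Eu-anti-GST antibody and Tracer 178 (DDR1 20 nM, DDR2 10 nM), 1 h, room temperature, HEPES pH 7.5 buffer.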

DDR1 [2] = target: T1, DDR1; experiment: DDR1 binding assay (LanthaScreen Europium Kinase Binding assay); parameters: purchased Carna Biosciences; details: binding assay, 5 nM DDR1, 20 nM Kinase Tracer 178; Ki from IC50 by Cheng-Prusoff; read-out: Ki DDR1
In short: as §1

T1 sequence (Q08345 19-913): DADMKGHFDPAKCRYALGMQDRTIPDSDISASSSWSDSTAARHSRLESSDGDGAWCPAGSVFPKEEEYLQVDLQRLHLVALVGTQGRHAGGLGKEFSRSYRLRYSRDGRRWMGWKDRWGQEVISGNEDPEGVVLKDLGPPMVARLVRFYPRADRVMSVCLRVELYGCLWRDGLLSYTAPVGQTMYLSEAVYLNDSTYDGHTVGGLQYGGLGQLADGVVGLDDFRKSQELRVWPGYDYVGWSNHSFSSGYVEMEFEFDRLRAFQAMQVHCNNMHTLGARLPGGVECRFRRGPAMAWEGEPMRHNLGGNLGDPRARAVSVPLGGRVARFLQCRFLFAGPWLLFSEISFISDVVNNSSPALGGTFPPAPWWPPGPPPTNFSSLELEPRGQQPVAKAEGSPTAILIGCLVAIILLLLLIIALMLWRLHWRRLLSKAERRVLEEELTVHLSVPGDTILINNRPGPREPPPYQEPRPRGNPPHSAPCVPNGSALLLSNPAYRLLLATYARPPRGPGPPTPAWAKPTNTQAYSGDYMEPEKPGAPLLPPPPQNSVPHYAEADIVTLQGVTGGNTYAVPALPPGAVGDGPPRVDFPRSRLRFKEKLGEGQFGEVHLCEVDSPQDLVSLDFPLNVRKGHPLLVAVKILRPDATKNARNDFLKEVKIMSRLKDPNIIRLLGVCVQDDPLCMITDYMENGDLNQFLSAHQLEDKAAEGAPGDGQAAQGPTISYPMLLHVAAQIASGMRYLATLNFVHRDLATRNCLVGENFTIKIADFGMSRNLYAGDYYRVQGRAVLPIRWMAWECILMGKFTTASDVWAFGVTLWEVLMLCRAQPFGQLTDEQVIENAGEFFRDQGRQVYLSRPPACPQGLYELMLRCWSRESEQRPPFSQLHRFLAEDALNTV

SMILES | IC50 (DDR1 [1]) | Ki (DDR2) | Ki (DDR1 [2])
O=C(Nc1cncc(C(F)(F)F)c1)c1csc2c1CCN(Cc1ncnc3[nH]ccc13)C2 [Example 155, 6-((7H-pyrrolo[2,3-d]pyrimidin-4-yl)methyl)-N-(5-(trifluoromethyl)pyridin-3-yl)-4,5,6,7-tetrahydrothieno[2,3-c]pyridine-3-carboxamide] | 25 to 50 nM | < 25 nM | < 25 nM
O=C(Nc1cccc(C(F)(F)F)c1)c1csc2c1CCN(C(=O)c1cnc3ccc(OCCO)cn13)C2 [Example 137, 6-(6-(2-hydroxyethoxy)imidazo[1,2-a]pyridine-3-carbonyl)-N-(3-(trifluoromethyl)phenyl)-4,5,6,7-tetrahydrothieno[2,3-c]pyridine-3-carboxamide] | < 25 nM | < 25 nM | < 25 nM
O=C(Nc1cc(CN2CCOCC2)cc(C(F)(F)F)c1)c1csc2c1CCN(C(=O)c1cnn3ccncc13)C2 [Example 172, N-(3-(morpholinomethyl)-5-(trifluoromethyl)phenyl)-6-(pyrazolo[1,5-a]pyrazine-3-carbonyl)-4,5,6,7-tetrahydrothieno[2,3-c]pyridine-3-carboxamide] | 25 to 50 nM | < 25 nM | < 25 nM
O=C(Nc1cc(OCCN2CCCC2)cc(C(F)(F)F)c1)c1csc2c1CCN(C(=O)c1cnc3ccccn13)C2 [Example 26, 6-(imidazo[1,2-a]pyridine-3-carbonyl)-N-(3-(2-(pyrrolidin-1-yl)ethoxy)-5-(trifluoromethyl)phenyl)-4,5,6,7-tetrahydrothieno[2,3-c]pyridine-3-carboxamide] | 25 to 50 nM | < 25 nM | < 25 nM
CCC(C)(C)c1cc(NC(=O)c2csc3c2CCN(C(=O)c2cnn4ccncc24)C3)on1 [Example 179, N-(3-(tert-pentyl)isoxazol-5-yl)-6-(pyrazolo[1,5-a]pyrazine-3-carbonyl)-4,5,6,7-tetrahydrothieno[2,3-c]pyridine-3-carboxamide] | 50 to 80 nM | < 25 nM | < 25 nM
CC(C)(C)c1cc(NC(=O)c2csc3c2CCN(C(=O)c2cnc4ccccn24)C3)n(-c2ccc(F)cc2)n1 [Example 5, N-(3-(tert-butyl)-1-(4-fluorophenyl)-1H-pyrazol-5-yl)-6-(imidazo[1,2-a]pyridine-3-carbonyl)-4,5,6,7-tetrahydrothieno[2,3-c]pyridine-3-carboxamide] | 25 to 50 nM | < 25 nM | < 25 nM
CC(C)(C)c1cc(NC(=O)c2csc3c2CCN(Cc2cnc4ccnn4c2)C3)on1 [Example 156, N-(3-(tert-butyl)isoxazol-5-yl)-6-(pyrazolo[1,5-a]pyrimidin-6-ylmethyl)-4,5,6,7-tetrahydrothieno[2,3-c]pyridine-3-carboxamide] | < 25 nM | < 25 nM | < 25 nM
O=C(Nc1cccc(C(F)(F)F)c1)c1csc2c1CCN(C(=O)c1cnc3[nH]ccc3c1)C2 [Example 68, 6-(1H-pyrrolo[2,3-b]pyridine-5-carbonyl)-N-(3-(trifluoromethyl)phenyl)-4,5,6,7-tetrahydrothieno[2,3-c]pyridine-3-carboxamide] | 25 to 50 nM | < 25 nM | < 25 nM
CC(C)Cc1cc(NC(=O)c2csc3c2CCN(C(=O)c2cnn4ccncc24)C3)on1 [Example 183, N-(3-isobutylisoxazol-5-yl)-6-(pyrazolo[1,5-a]pyrazine-3-carbonyl)-4,5,6,7-tetrahydrothieno[2,3-c]pyridine-3-carboxamide] | 50 to 80 nM | < 25 nM | < 25 nM
O=C(Nc1ccc(Cl)c(C(F)(F)F)c1)c1csc2c1CCN(C(=O)c1cnn3ccncc13)C2 [Example 176, N-(4-chloro-3-(trifluoromethyl)phenyl)-6-(pyrazolo[1,5-a]pyrazine-3-carbonyl)-4,5,6,7-tetrahydrothieno[2,3-c]pyridine-3-carboxamide] | 50 to 80 nM | < 25 nM | < 25 nM
O=C(Nc1ccc(OC2COC2)c(C(F)(F)F)c1)c1csc2c1CCN(C(=O)c1cnc3ccccn13)C2 [Example 13, 6-(imidazo[1,2-a]pyridine-3-carbonyl)-N-(4-(oxetan-3-yloxy)-3-(trifluoromethyl)phenyl)-4,5,6,7-tetrahydrothieno[2,3-c]pyridine-3-carboxamide] | < 25 nM | < 25 nM | < 25 nM
CC(C)(C)c1cc(NC(=O)c2csc3c2CCN(C(=O)c2cnn4ccncc24)C3)on1 [Example 113, N-(3-(tert-butyl)isoxazol-5-yl)-6-(pyrazolo[1,5-a]pyrazine-3-carbonyl)-4,5,6,7-tetrahydrothieno[2,3-c]pyridine-3-carboxamide] | 25 to 50 nM | < 25 nM | < 25 nM
Cc1ccn2c(C(=O)N3CCc4c(C(=O)Nc5cc(C(C)(C)C)nn5C)csc4C3)cnc2c1 [Example 79, N-(5-tert-butyl-2-methyl-pyrazol-3-yl)-6-(7-methylimidazo[1,2-a]pyridine-3-carbonyl)-5,7-dihydro-4H-thieno[2,3-c]pyridine-3-carboxamide] | 25 to 50 nM | < 25 nM | < 25 nM
O=C(Nc1cncc(C(F)(F)F)c1)c1csc2c1CCN(C(=O)c1cnn3cccnc13)C2 [Example 109, 6-(pyrazolo[1,5-a]pyrimidine-3-carbonyl)-N-(5-(trifluoromethyl)pyridin-3-yl)-4,5,6,7-tetrahydrothieno[2,3-c]pyridine-3-carboxamide] | 25 to 50 nM | < 25 nM | < 25 nM
Cn1nc(C2CCC2)cc1NC(=O)c1csc2c1CCN(C(=O)c1cnc3ccccn13)C2 [Example 35, N-(3-cyclobutyl-1-methyl-1H-pyrazol-5-yl)-6-(imidazo[1,2-a]pyridine-3-carbonyl)-4,5,6,7-tetrahydrothieno[2,3-c]pyridine-3-carboxamide] | 25 to 50 nM | < 25 nM | < 25 nM
Cn1nc(C2(C(F)(F)F)CC2)cc1NC(=O)c1csc2c1CCN(C(=O)c1cnc3ccccn13)C2 [Example 114, 6-(imidazo[1,2-a]pyridine-3-carbonyl)-N-(1-methyl-3-(1-(trifluoromethyl)cyclopropyl)-1H-pyrazol-5-yl)-4,5,6,7-tetrahydrothieno[2,3-c]pyridine-3-carboxamide] | 50 to 80 nM | < 25 nM | < 25 nM
Cn1nc(C(C)(C)C)cc1NC(=O)c1csc2c1CCN(C(=O)c1cnc3ccc(C(F)(F)F)cn13)C2 [Example 82, N-(3-(tert-butyl)-1-methyl-1H-pyrazol-5-yl)-6-(6-(trifluoromethyl)imidazo[1,2-a]pyridine-3-carbonyl)-4,5,6,7-tetrahydrothieno[2,3-c]pyridine-3-carboxamide] | 25 to 50 nM | < 25 nM | < 25 nM
CC(C)n1nc(C(C)(C)C)cc1NC(=O)c1csc2c1CCN(C(=O)c1cnc3ccccn13)C2 [Example 38, N-(3-(tert-butyl)-1-isopropyl-1H-pyrazol-5-yl)-6-(imidazo[1,2-a]pyridine-3-carbonyl)-4,5,6,7-tetrahydrothieno[2,3-c]pyridine-3-carboxamide] | 25 to 50 nM | < 25 nM | < 25 nM
O=C(Nc1cncc(C(F)(F)F)c1)c1csc2c1CCN(C(=O)c1cnc3n1CCCC3)C2 [Example 111, 6-(5,6,7,8-tetrahydroimidazo[1,2-a]pyridine-3-carbonyl)-N-(5-(trifluoromethyl)pyridin-3-yl)-4,5,6,7-tetrahydrothieno[2,3-c]pyridine-3-carboxamide] | 50 to 80 nM | < 25 nM | < 25 nM
CC(C)c1cc(NC(=O)c2csc3c2CCN(C(=O)c2cnc4ccccn24)C3)n(C)n1 [Example 36, 6-(imidazo[1,2-a]pyridine-3-carbonyl)-N-(3-isopropyl-1-methyl-1H-pyrazol-5-yl)-4,5,6,7-tetrahydrothieno[2,3-c]pyridine-3-carboxamide] | 50 to 80 nM | < 25 nM | < 25 nM
